# Results taken from the NIST ThermoML archive (doi:10.1016/j.fluid.2010.02.022).
# Numbers after ± are expanded uncertainties.
# Conditions: 101 kPa, Liquid, Pendant drop method
Compound,interfacial tension (293 K),interfacial tension (298 K),interfacial tension (303 K),interfacial tension (308 K),interfacial tension (313 K),interfacial tension (318 K),interfacial tension (323 K)
CCCCCCCCn1cc[n+](C)c1.O=S(=O)([N-]S(=O)(=O)C(F)(F)F)C(F)(F)F + CCCCCC,3.12 ± 0.11 mN/m,3.07 ± 0.11 mN/m,3.02 ± 0.11 mN/m,2.95 ± 0.11 mN/m,2.88 ± 0.11 mN/m,,
CCCCCC[n+]1ccn(C)c1.O=S(=O)([N-]S(=O)(=O)C(F)(F)F)C(F)(F)F + CCCCCC,5.19 ± 0.14 mN/m,5.1 ± 0.13 mN/m,4.99 ± 0.13 mN/m,4.88 ± 0.13 mN/m,4.79 ± 0.13 mN/m,,
CCCC[n+]1ccn(C)c1.O=S(=O)([N-]S(=O)(=O)C(F)(F)F)C(F)(F)F + CCCCCC,7.78 ± 0.17 mN/m,7.64 ± 0.17 mN/m,7.5 ± 0.17 mN/m,7.37 ± 0.16 mN/m,7.24 ± 0.16 mN/m,,
CCn1cc[n+](C)c1.O=S(=O)([N-]S(=O)(=O)C(F)(F)F)C(F)(F)F + CCCCCC,11.36 ± 0.22 mN/m,11.23 ± 0.22 mN/m,11.12 ± 0.22 mN/m,10.98 ± 0.22 mN/m,10.82 ± 0.21 mN/m,,
CCCCCCCCn1cc[n+](C)c1.O=S(=O)([N-]S(=O)(=O)C(F)(F)F)C(F)(F)F + CCCCCCCC,3.76 ± 0.1 mN/m,3.69 ± 0.1 mN/m,3.6 ± 0.1 mN/m,3.49 ± 0.1 mN/m,3.38 ± 0.1 mN/m,,
CCCCCC[n+]1ccn(C)c1.O=S(=O)([N-]S(=O)(=O)C(F)(F)F)C(F)(F)F + CCCCCCCC,5.79 ± 0.11 mN/m,5.66 ± 0.11 mN/m,5.5 ± 0.11 mN/m,5.36 ± 0.11 mN/m,5.24 ± 0.11 mN/m,,
CCCC[n+]1ccn(C)c1.O=S(=O)([N-]S(=O)(=O)C(F)(F)F)C(F)(F)F + CCCCCCCC,8.78 ± 0.11 mN/m,8.6 ± 0.11 mN/m,8.43 ± 0.11 mN/m,8.25 ± 0.11 mN/m,8.1 ± 0.11 mN/m,,
CCn1cc[n+](C)c1.O=S(=O)([N-]S(=O)(=O)C(F)(F)F)C(F)(F)F + CCCCCCCC,12.23 ± 0.13 mN/m,12.1 ± 0.13 mN/m,11.84 ± 0.12 mN/m,11.7 ± 0.12 mN/m,11.43 ± 0.12 mN/m,,
CCCCCCCCn1cc[n+](C)c1.O=S(=O)([N-]S(=O)(=O)C(F)(F)F)C(F)(F)F + CCCCCCCCCC,3.98 ± 0.1 mN/m,3.88 ± 0.1 mN/m,3.76 ± 0.1 mN/m,3.63 ± 0.1 mN/m,3.51 ± 0.1 mN/m,,
CCCCCC[n+]1ccn(C)c1.O=S(=O)([N-]S(=O)(=O)C(F)(F)F)C(F)(F)F + CCCCCCCCCC,6.59 ± 0.11 mN/m,6.47 ± 0.11 mN/m,6.36 ± 0.11 mN/m,6.24 ± 0.11 mN/m,6.11 ± 0.11 mN/m,,
CCCC[n+]1ccn(C)c1.O=S(=O)([N-]S(=O)(=O)C(F)(F)F)C(F)(F)F + CCCCCCCCCC,9.43 ± 0.12 mN/m,9.33 ± 0.12 mN/m,9.21 ± 0.12 mN/m,9.1 ± 0.12 mN/m,8.99 ± 0.12 mN/m,,
CCn1cc[n+](C)c1.O=S(=O)([N-]S(=O)(=O)C(F)(F)F)C(F)(F)F + CCCCCCCCCC,12.87 ± 0.14 mN/m,12.75 ± 0.14 mN/m,12.64 ± 0.14 mN/m,12.52 ± 0.14 mN/m,12.41 ± 0.14 mN/m,,
CCCCCCCCCCn1cc[n+](C)c1.O=S(=O)([N-]S(=O)(=O)C(F)(F)F)C(F)(F)F + O,17.71 ± 0.14 mN/m,17.41 ± 0.14 mN/m,17.09 ± 0.14 mN/m,16.75 ± 0.13 mN/m,16.41 ± 0.13 mN/m,16.05 ± 0.13 mN/m,15.66 ± 0.13 mN/m
CCCCCCCCn1cc[n+](C)c1.O=S(=O)([N-]S(=O)(=O)C(F)(F)F)C(F)(F)F + O,16.47 ± 0.14 mN/m,15.79 ± 0.13 mN/m,15.67 ± 0.13 mN/m,15.37 ± 0.13 mN/m,15.06 ± 0.13 mN/m,14.61 ± 0.13 mN/m,14.44 ± 0.13 mN/m
CCCCCC[n+]1ccn(C)c1.O=S(=O)([N-]S(=O)(=O)C(F)(F)F)C(F)(F)F + O,15.39 ± 0.13 mN/m,14.82 ± 0.13 mN/m,14.49 ± 0.13 mN/m,14.17 ± 0.13 mN/m,14.01 ± 0.12 mN/m,13.78 ± 0.12 mN/m,13.45 ± 0.12 mN/m
CCCC[n+]1ccn(C)c1.O=S(=O)([N-]S(=O)(=O)C(F)(F)F)C(F)(F)F + O,13.69 ± 0.12 mN/m,13.2 ± 0.12 mN/m,12.57 ± 0.12 mN/m,12.31 ± 0.12 mN/m,11.62 ± 0.12 mN/m,11.4 ± 0.12 mN/m,11.07 ± 0.12 mN/m
CCn1cc[n+](C)c1.O=S(=O)([N-]S(=O)(=O)C(F)(F)F)C(F)(F)F + O,10.04 ± 0.11 mN/m,9.85 ± 0.11 mN/m,9.51 ± 0.11 mN/m,9.29 ± 0.11 mN/m,9.05 ± 0.11 mN/m,8.79 ± 0.11 mN/m,8.61 ± 0.11 mN/m
"Cn1cc[n+](C)c1.O=S(=O)([N-]S(=O)(=O)C(F)(F)F)C(F)(F)F [1,3-dimethylimidazolium bis((trifluoromethyl)sulfonyl)amide] + O",,8.05 ± 0.11 mN/m,7.83 ± 0.11 mN/m,7.49 ± 0.11 mN/m,7.14 ± 0.11 mN/m,6.82 ± 0.11 mN/m,6.52 ± 0.11 mN/m
CCCCn1cc[n+](C)c1.O=C([O-])C(F)(F)F [1-butyl-3-methylimidazolium trifluoroacetate] + CCCCCC,8.74 ± 0.18 mN/m,8.58 ± 0.18 mN/m,8.43 ± 0.18 mN/m,8.29 ± 0.18 mN/m,8.16 ± 0.17 mN/m,,
CCCCn1cc[n+](C)c1.O=C([O-])C(F)(F)F [1-butyl-3-methylimidazolium trifluoroacetate] + CCCCCCCC,9.38 ± 0.12 mN/m,9.29 ± 0.12 mN/m,9.21 ± 0.12 mN/m,9.11 ± 0.12 mN/m,8.98 ± 0.11 mN/m,,
CCCCn1cc[n+](C)c1.O=C([O-])C(F)(F)F [1-butyl-3-methylimidazolium trifluoroacetate] + CCCCCCCCCC,10.52 ± 0.13 mN/m,10.41 ± 0.13 mN/m,10.29 ± 0.13 mN/m,10.16 ± 0.13 mN/m,10.04 ± 0.13 mN/m,,
CCCCn1cc[n+](C)c1.O=S(=O)([O-])C(F)(F)F [1-butyl-3-methylimidazolium trifluoromethanesulfonate] + CCCCCC,9.07 ± 0.19 mN/m,8.9 ± 0.19 mN/m,8.74 ± 0.18 mN/m,8.58 ± 0.18 mN/m,8.43 ± 0.18 mN/m,,
CCCCn1cc[n+](C)c1.O=S(=O)([O-])C(F)(F)F [1-butyl-3-methylimidazolium trifluoromethanesulfonate] + CCCCCCCC,9.96 ± 0.12 mN/m,9.88 ± 0.12 mN/m,9.79 ± 0.12 mN/m,9.7 ± 0.12 mN/m,9.59 ± 0.12 mN/m,,
CCCCn1cc[n+](C)c1.O=S(=O)([O-])C(F)(F)F [1-butyl-3-methylimidazolium trifluoromethanesulfonate] + CCCCCCCCCC,10.79 ± 0.13 mN/m,10.67 ± 0.13 mN/m,10.56 ± 0.13 mN/m,10.44 ± 0.13 mN/m,10.31 ± 0.13 mN/m,,
